The record followed here is patent US10053457B2, “Hydroxyalkyl-piperazine derivatives as CXCR3 receptor modulators” (IDORSIA PHARMACEUTICALS LTD, priority 2015, dated 2018).

pIC50: −log10 of the molar value.

What all share (type): cell-based
One data set deals with human CXCR3A (Homo sapiens (Human), UniProt P49682). The data set can be described thus: FLIPR assay (CXCL10-induced calcium signal). Particulars: CHO-K1 cells expressing human CXCR3A coupled to Galpha(16); CXCL10 agonist 20 nM; mean values. The source says: (§1) In the case where IC50 values have been determined several times for the same compound, mean values are given.
The next data set has as its target CXCR3 (Homo sapiens (Human), UniProt P49682). The data set can be described thus: Receptor internalization assay in human whole blood (CXCR3 surface expression on CD4 positive cells, CXCL10). Particulars: final CXCL10 9 nM, 30 min at 37° C., mean values. As for the experimental part:
Diluted compounds are then mixed with an equal volume of CXCL10 (Peprotech) diluted in PBS. Anticoagulated venous human whole blood is added to the mixture, which is then incubated in a CO2 incubator at 37° C. to allow for ligand mediated receptor internalization (final CXCL10 concentration is 9 nM). After 30 min, the blood is mixed with fluorescently labeled CXCR3 and CD4 specific antibodies (Becton Dickinson) and incubated on ice for 10 minutes. Samples are then mixed with BD FACS Lysing Solution (Becton Dickinson) in order to eliminate red blood cells. After washing the cells with PBS containing 0.5% BSA, the samples are then analyzed in a flow cytometer (FACS Canto II, Becton Dickinson). For data analysis using FACSDiva software (Becton Dickinson), the mean fluorescence corresponding to CXCR3 cell surface expression was determined on CD4 positive cells. The program GraphPad Prism or similar software is used to fit the data to a single site dose response curve and to calculate IC50 values.
as §1

Another data set addresses hERG K channel (Homo sapiens (Human), UniProt Q12809). Nature of the data set: hERG Q-Patch assay. The conditions noted are these: CHO cells expressing hERG, K+ tail current 3 min after application, mean of two or three experiments. As for the experimental part: Compounds are evaluated for block of the hERG K channel using CHO cells stably expressing the hERG gene (accession number U04270, bSys, Witterswil, Switzerland) and the QPatch robotic platform (Sophion, Ballerup, Denmark) in single-cell mode at room temperature. Cells are grown in culture flasks at 37° C. in 5% CO2, in culture medium (Ham's F-12 Nutrient Mixture, Invitrogen 21765-029) supplemented with 9% (v/v) fetal calf serum, 0.9% Penicillin/Streptomycin (10,000 U/mL, Invitrogen 15140148), 100 μg/mL Hygromycin B (Invitrogen 10687010). When the cells are ˜80% confluent (every 2-3 days), they are either split for further culture or used for electrophysiology. For further culture, cells are detached with 0.25% Trypsin EDTA solution (Invitrogen 25200-056) and a fraction of the cells (10-30%) is reseeded in culture medium. For electrophysiology, on the experimental day, cells are detached with 0.25% Trypsin EDTA solution and all cells are suspended in suspension medium (293 SFM II, Invitrogen 11686-029) supplemented with 20 mM HEPES and 0.04 mg/mL Trypsin inhibitor. Cells are kept in suspension medium at 32-35° C. in the QPatch robot until use, at which time aliquots are transferred to the extracellular solution (in mM: NaCl 150; KCl 4; CaCl2 1.2; MgCl2 1; HEPES 10; pH 7.4 with NaOH) containing 0.3% v/v DMSO and applied to the test plates. K^+ currents are measured with the patch-voltage-clamp technique in the whole-cell configuration with the internal solution (in mM: KCl, 140; NaCl, 10; MgCl2, 1; HEPES, 10: EGTA, 5; pH=7.2 with KOH). Currents are low-pass filtered using the internal Bessel filter of the QPatch robot with a cut-off frequency of 2 kHz and are digitized at 10 kHz. K^+ tail currents are produced from a holding voltage of −80 mV by a 500-ms depolarization to +20 mV followed by a 500-ms repolarization to −40 mV; tail current amplitudes are measured at the end of the repolarization to −40 mV. The pulse pattern is repeated every 10 sec during the experiment, baseline K^+ current is measured after 3 min in extracellular solution, test-solution containing compound is then applied, and K^+ current in presence of compound is measured 3 minutes after application to the cells. The respective test-solution is prepared by (1) dissolving the test-compound in pure DMSO, (2) diluting this DMSO solution in extracellular solution, and (3) adding further DMSO, such that the final test-solution has a concentration of either 300 nM or 3000 nM of the test-compound and contains 0.3% v/v DMSO. Compound effects are quantified as % block by dividing the current in presence of compound by the baseline current; two or three experiments are performed for each compound and the final value represents the mean of the results of each experiment.
(In general: Block of hERG is tested as a sign of cardiac risk.)

Chain of hERG K channel (Q12809 whole entry): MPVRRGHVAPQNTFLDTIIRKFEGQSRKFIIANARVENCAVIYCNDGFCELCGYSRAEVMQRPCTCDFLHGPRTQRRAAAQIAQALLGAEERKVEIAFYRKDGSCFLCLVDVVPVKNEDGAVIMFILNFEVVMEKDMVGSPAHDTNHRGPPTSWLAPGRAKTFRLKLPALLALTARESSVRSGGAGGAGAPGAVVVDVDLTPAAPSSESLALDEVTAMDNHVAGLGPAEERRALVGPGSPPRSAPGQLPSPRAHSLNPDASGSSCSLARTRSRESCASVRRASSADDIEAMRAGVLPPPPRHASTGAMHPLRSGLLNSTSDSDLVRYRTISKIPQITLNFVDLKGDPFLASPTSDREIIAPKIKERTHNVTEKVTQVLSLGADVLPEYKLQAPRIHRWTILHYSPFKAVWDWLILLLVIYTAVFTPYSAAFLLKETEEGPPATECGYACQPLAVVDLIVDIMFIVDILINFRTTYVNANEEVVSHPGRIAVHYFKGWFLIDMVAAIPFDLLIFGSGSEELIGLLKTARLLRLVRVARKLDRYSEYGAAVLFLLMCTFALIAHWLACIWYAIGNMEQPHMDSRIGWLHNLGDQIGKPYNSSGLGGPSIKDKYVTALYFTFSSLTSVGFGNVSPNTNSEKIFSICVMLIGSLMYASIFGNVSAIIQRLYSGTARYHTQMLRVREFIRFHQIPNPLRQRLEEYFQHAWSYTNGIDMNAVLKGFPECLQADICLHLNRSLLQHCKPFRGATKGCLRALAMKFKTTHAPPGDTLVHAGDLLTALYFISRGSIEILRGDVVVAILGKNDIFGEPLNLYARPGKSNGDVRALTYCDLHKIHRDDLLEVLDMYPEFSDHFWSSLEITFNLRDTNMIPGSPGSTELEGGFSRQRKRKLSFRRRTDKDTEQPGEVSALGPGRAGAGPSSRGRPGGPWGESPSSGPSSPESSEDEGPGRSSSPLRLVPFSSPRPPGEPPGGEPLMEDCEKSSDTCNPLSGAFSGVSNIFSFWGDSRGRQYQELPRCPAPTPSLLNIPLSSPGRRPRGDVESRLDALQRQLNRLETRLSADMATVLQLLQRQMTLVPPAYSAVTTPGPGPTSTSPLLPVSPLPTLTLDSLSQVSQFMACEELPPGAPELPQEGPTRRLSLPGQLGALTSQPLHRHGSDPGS
Chain of human CXCR3A (P49682 whole entry): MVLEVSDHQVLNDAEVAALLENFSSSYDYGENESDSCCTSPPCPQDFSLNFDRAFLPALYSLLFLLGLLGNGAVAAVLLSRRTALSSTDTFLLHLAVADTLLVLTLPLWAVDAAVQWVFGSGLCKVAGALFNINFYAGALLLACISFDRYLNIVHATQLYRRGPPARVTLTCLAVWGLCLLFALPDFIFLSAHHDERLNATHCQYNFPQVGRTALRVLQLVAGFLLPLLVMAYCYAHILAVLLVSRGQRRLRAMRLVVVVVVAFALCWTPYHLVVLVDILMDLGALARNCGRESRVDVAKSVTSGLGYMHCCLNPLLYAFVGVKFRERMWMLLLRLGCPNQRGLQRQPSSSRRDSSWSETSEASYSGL
Chain of CXCR3 (P49682 whole entry): as above

Turning to `CC(C)c1ncn(CC(=O)N2CCN(c3sc(C(F)(F)F)nc3-c3cnc(C(F)(F)F)nc3)C[C@H]2CO)n1` [Example 4, 1-{(S)-2-Hydroxymethyl-4-[2-trifluoromethyl-4-(2-trifluoromethyl-pyrimidin-5-yl)-thiazol-5-yl]-piperazin-1-yl}-2-(3-isopropyl-[1,2,4]triazol-1-yl)-ethanone], the pIC50 was 8.74 at human CXCR3A and 6.55 at CXCR3. In addition, the “% block” value is 4% on hERG K channel (concentration 300 nM) and 13% on hERG K channel (concentration 3000 nM).
For `CCc1ncn(CC(=O)N2CCN(c3sc(C(F)(F)F)nc3-c3cnc(C(F)(F)F)nc3)C[C@H]2CCO)n1` [Example 32, 2-(3-Ethyl-[1,2,4]triazol-1-yl)-1-{(R)-2-(2-hydroxy-ethyl)-4-[2-trifluoromethyl-4-(2-trifluoromethyl-pyrimidin-5-yl)-thiazol-5-yl]-piperazin-1-yl}-ethanone], in that order: 8.59, 7.03, 0% and 19%.
As to `O=C(Cn1ccc(C2CC2)n1)N1CCN(c2sc(C(F)(F)F)nc2-c2cnc(C(F)(F)F)nc2)C[C@H]1CO` [Example 44, 2-(3-Cyclopropyl-pyrazol-1-yl)-1-{(S)-2-hydroxymethyl-4-[2-trifluoromethyl-4-(2-trifluoromethyl-pyrimidin-5-yl)-thiazol-5-yl]-piperazin-1-yl}-ethanone], the pIC50 was 9.42 at human CXCR3A and 7.12 at CXCR3. In addition, the “% block” value on hERG K channel (concentration 300 nM) is given as 5%; at hERG K channel (concentration 3000 nM), 34%.
For `CCc1ccn(CC(=O)N2CCN(c3sc(C(F)(F)F)nc3-c3cnc(C(F)(F)F)nc3)C[C@H]2CCO)n1` [Example 40, 2-(3-Ethyl-pyrazol-1-yl)-1-{(R)-2-(2-hydroxy-ethyl)-4-[2-trifluoromethyl-4-(2-trifluoromethyl-pyrimidin-5-yl)-thiazol-5-yl]-piperazin-1-yl}-ethanone], in that order: 8.80, 7.49, 5% and 47%.
For `COCc1ncn(CC(=O)N2CCN(c3sc(C(F)(F)F)nc3-c3cnc(C(F)(F)F)nc3)C[C@@H]2CO)n1` [Example 17, 1-{(R)-2-Hydroxymethyl-4-[2-trifluoromethyl-4-(2-trifluoromethyl-pyrimidin-5-yl)-thiazol-5-yl]-piperazin-1-yl}-2-(3-methoxymethyl-[1,2,4]triazol-1-yl)-ethanone], in that order: 8.23, 5.89, 2% and 6%.
Regarding `CC(C)(C)c1ncn(CC(=O)N2CCN(c3sc(C(F)(F)F)nc3-c3cnc(C(F)(F)F)nc3)C[C@H]2CO)n1` [Example 1, 2-(3-tert-Butyl-[1,2,4]triazol-1-yl)-1-{(S)-2-hydroxymethyl-4-[2-trifluoromethyl-4-(2-trifluoromethyl-pyrimidin-5-yl)-thiazol-5-yl]-piperazin-1-yl}-ethanone], the values for the pIC50 on human CXCR3A and at CXCR3 were 8.17 and 6.38, respectively. In addition, the “% block” value amounted to 2% on hERG K channel (concentration 300 nM) and 12% at hERG K channel (concentration 3000 nM).
Taken in the same sequence, the figures for `Cc1nc(C)n(CC(=O)N2CCN(c3sc(C(F)(F)F)nc3-c3cnc(C(F)(F)F)nc3)C[C@H]2CCO)n1` [Example 27, 2-(3,5-Dimethyl-[1,2,4]triazol-1-yl)-1-{(R)-2-(2-hydroxy-ethyl)-4-[2-trifluoromethyl-4-(2-trifluoromethyl-pyrimidin-5-yl)-thiazol-5-yl]-piperazin-1-yl}-ethanone] were 8.28, 6.63, 1% and 4%.
For `CC(C)c1ncn(CC(=O)N2CCN(c3sc(C(F)(F)F)nc3-c3cnc(C(F)(F)F)nc3)C[C@@H]2CO)n1` [Example 11, 1-{(R)-2-Hydroxymethyl-4-[2-trifluoromethyl-4-(2-trifluoromethyl-pyrimidin-5-yl)-thiazol-5-yl]-piperazin-1-yl}-2-(3-isopropyl-[1,2,4]triazol-1-yl)-ethanone], in that order: 8.47, 6.47, 5% and 11%.
With `O=C(Cn1ccc(C2CC2)n1)N1CCN(c2sc(C(F)(F)F)nc2-c2cnc(C(F)(F)F)nc2)C[C@H]1CCO` [Example 41, 2-(3-Cyclopropyl-pyrazol-1-yl)-1-{(R)-2-(2-hydroxy-ethyl)-4-[2-trifluoromethyl-4-(2-trifluoromethyl-pyrimidin-5-yl)-thiazol-5-yl]-piperazin-1-yl}-ethanone], the negative logarithm of the IC50 (pIC50) at human CXCR3A is 9.35; on CXCR3 it was 7.52. Further, the entries for the “% block” value at hERG K channel (concentration 300 nM) and on hERG K channel (concentration 3000 nM) were 12% and 60%, respectively.
Taken in the same sequence, the figures for `CC(C)c1ncn(CC(=O)N2CCN(c3sc(C(F)(F)F)nc3-c3ccc(C(F)(F)F)nc3)C[C@@H]2CO)n1` [Example 10, 1-{(R)-2-Hydroxymethyl-4-[2-trifluoromethyl-4-(6-trifluoromethyl-pyridin-3-yl)-thiazol-5-yl]-piperazin-1-yl}-2-(3-isopropyl-[1,2,4]triazol-1-yl)-ethanone] were 8.96, 6.02, 2% and 12%.
Taken in the same sequence, the figures for `CC(=O)c1ncn(CC(=O)N2CCN(c3sc(C(F)(F)F)nc3-c3cnc(C(F)(F)F)nc3)C[C@@H]2CO)n1` [Example 20, 2-(3-Acetyl-[1,2,4]triazol-1-yl)-1-{(R)-2-hydroxymethyl-4-[2-trifluoromethyl-4-(2-trifluoromethyl-pyrimidin-5-yl)-thiazol-5-yl]-piperazin-1-yl}-ethanone] were 8.19, 5.62, 2% and 3%.
For `Cc1nc(C)n(CC(=O)N2CCN(c3sc(C(F)(F)F)nc3-c3cnc(C4CC4)nc3)C[C@H]2CO)n1` [Example 8, 1-{(S)-4-[4-(2-Cyclopropyl-pyrimidin-5-yl)-2-trifluoromethyl-thiazol-5-yl]-2-hydroxymethyl-piperazin-1-yl}-2-(3,5-dimethyl-[1,2,4]triazol-1-yl)-ethanone], in that order: 8.00, 5.49, 19% and 54%.
Consider `O=C(Cn1cnc(C2CCC2)n1)N1CCN(c2sc(C(F)(F)F)nc2-c2cnc(C(F)(F)F)nc2)C[C@H]1CCO` [Example 29, 2-(3-Cyclobutyl-[1,2,4]triazol-1-yl)-1-{(R)-2-(2-hydroxy-ethyl)-4-[2-trifluoromethyl-4-(2-trifluoromethyl-pyrimidin-5-yl)-thiazol-5-yl]-piperazin-1-yl}-ethanone], for which the pIC50 is 8.26 on human CXCR3A and 6.80 against CXCR3. The “% block” value is reported as 4% at hERG K channel (concentration 300 nM) and 38% on hERG K channel (concentration 3000 nM).

The pIC50 is the negative decadic logarithm of the IC50, by convention in mol/L.
